Laboratory results from patent US12357654B2, “Application of glucan in preparation of drug” (Qingdao Conson Pharmaceutical Co., Ltd., priority 2019, dated 2025).

Assays:
[1] = system: leukocytes; experiment: Immune cell concentration by hematology analyzer, B16 model after radiotherapy; format: in vivo, C57BL/6J mice; settings: local radiotherapy 10 Gy, glucan by tail vein once a week, FIGS. 8-15
Experimental: A cell suspension of 3×10^5 mouse melanoma cell line B16 (presented by PerkinElmer) was injected subcutaneously into C57BL/6J mice (female, 6-8 weeks old, purchased from Jinan Pengyue Experimental Animal Company)(Overwijk & Restifo, 2001). About 5 days after tumor implantation, local radiotherapy (tumor injection area, 10 Gy) was applied. On day 6 and day 14, vehicle or β-1,3/1,6-glucan was administered (tail vein injection, once a week), and on day 17, after the animals were sacrificed, tumor weight was measured. Blood was taken from the heart after animal sacrificed, placed into EDTA-anticoagulation tubes. After mixing, 50 μl of whole blood was taken and the immune cell concentration was measured by a hematology analyzer.

[2] = system: mouse melanoma cell line B16; experiment: B16 syngeneic tumor model after local radiotherapy: tumor volume, tumor weight; format: in vivo, C57BL/6J mice; settings: local radiotherapy 10 Gy day 5; glucan by tail vein once a week (day 6, day 14); sacrificed day 17; FIGS. 5-7
Experimental: A cell suspension of 3×10^5 mouse melanoma cell line B16 (presented by PerkinElmer) was injected subcutaneously into C57BL/6J mice (female, 6-8 weeks old, purchased from Jinan Pengyue Experimental Animal Company)(Overwijk & Restifo, 2001). About 5 days after tumor implantation, local radiotherapy (tumor injection area, 10 Gy) was applied. On day 6 and day 14, vehicle or β-1,3/1,6-glucan was administered (tail vein injection, once a week), during this period, tumor volume and mouse body weight were measured, and on day 17, after the animals were sacrificed, tumor weight was measured.

[3] = system: mouse melanoma cell line B16; experiment: B16 syngeneic tumor model with carboplatin chemotherapy: tumor volume, tumor weight; format: in vivo, C57BL/6J mice; settings: BG136 4 mg/kg tail vein with carboplatin 30 mg/kg i.p. twice a week; sacrificed day 15; FIGS. 17-21
Experimental: (§1) A cell suspension of 3×10^5 mouse melanoma cell line B16 (presented by PerkinElmer) was injected subcutaneously into C57BL/6J mice (females, 6-8 weeks old, purchased from Jinan Panyue Experimental Animal Company) (Overwijk & Restifo, 2001). About 2 days after tumor implantation, carboplatin (30 mg/kg, twice a week) was injected intraperitoneally and BG136 (4 mg/kg) or lentinan LNT (2 mg/kg) was injected via the tail vein, and tumor volume were measured during administration, and on day 15, after animals were sacrificed, tumor weight was measured. Blood was taken from the heart after animals were sacrificed, placed in EDTA-anticoagulation tubes. After mixing, 50 μl of whole blood was taken and the immune cell concentration was measured by a hematology analyzer.

[4] = system: leukocytes and platelets; experiment: Leukocytes and platelets by hematology analyzer, B16 model with carboplatin chemotherapy; format: in vivo, C57BL/6J mice; settings: BG136 4 mg/kg tail vein with carboplatin 30 mg/kg i.p. twice a week; day 15; FIGS. 17-21
Experimental: as §1

[5] = system: lymphocytes in peripheral blood; experiment: Relative lymphocyte concentration in peripheral blood by FACS, B16 model with anti-PD-1 antibody; format: in vivo, C57BL/6J mice; settings: 8 mg/kg β-1,3/1,6-glucan combined with PD-1 antibody, versus PD-1 antibody alone; FIG. 4
Experimental: A cell suspension of 3×10^5 mouse melanoma cell line B16 (presented by PerkinElmer) was injected subcutaneously into C57BL/6J mice (female, 6-8 weeks old, purchased from Jinan Pengyue Experimental Animal Company). The administration experiments were performed about 4 days after implantation when B16 tumors have grown to be palpable. […] Tumor volumes were evaluated and tumor weights were recorded. After sacrifice of mice, blood and tumor samples were collected for flow cytometric analysis.
The experimental method was the same as in Example 1. On day 14, blood was taken from the heart after animal sacrificed, and placed in EDTA-anticoagulation tubes. After mixing, 50 μl of whole blood was taken. 5 μl of GFP microspheres were added to each sample for erythrocyte lysis.
(§2) The single-cell suspensions were blocked with blocking buffer (20% FBS, 1:100 CD16/CD32 antibody and 1:100 rat IgG) for 20 min, and incubated and staining with the corresponding immune cell surface protein antibodies (CD4-BV510, CD8-PerCP-Cy5.5, CD19-APC, CD3-FITC) for 30 minutes at 4° C. Analysis of immune cell population ratios was performed by FACS Arial III (BD Biosciences). The specific procedure was delineating the cell population in the FSC/SSC quadrant, delineating the single cell population by FSC-H and FSC-A, and delineating the corresponding immune cells by immune cell surface markers, and calculating the relative immune cell concentration.

[6] = system: CD4, CD8 and CD19 cells in peripheral blood; experiment: Relative CD4, CD8, CD19 cell concentration in peripheral blood by FACS, B16 model after radiotherapy; format: in vivo, C57BL/6J mice; settings: 8 mg/kg β-1,3/1,6-glucan after radiotherapy, FIG. 16
Experimental: On day 14, blood was taken from the heart after animals were sacrificed, and placed in EDTA-anticoagulation tubes. After mixing, 50 μl of whole blood was taken. 5 μl of GFP microspheres were added to each sample for erythrocyte lysis.
as §2, with “CD19-APC)” for “CD19-APC, CD3-FITC)”, “Anal” for “Arial”

[7] = system: mouse melanoma cell line B16; experiment: B16 syngeneic tumor model, β-1,3/1,6-glucan with anti-PD-1 antibody: tumor volume, tumor weight, body weight; format: in vivo
Experimental: (§3) A cell suspension of 3×10^5 mouse melanoma cell line B16 (presented by PerkinElmer) was injected subcutaneously into C57BL/6J mice (female, 6-8 weeks old, purchased from Jinan Pengyue Experimental Animal Company). The administration experiments were performed about 4 days after implantation when B16 tumors have grown to be palpable. Mice were divided into four groups and treated with vehicle or β-1,3/1,6-glucan (4 mg/kg, i.v., twice a week) alone, or in combination with anti-PD-1 antibody (anti-mouse PD-1 antibody purchased from BioxCell, 200 μg per mouse, i.v., once a week). Tumor volumes were evaluated and tumor weights were recorded. After sacrifice of mice, blood and tumor samples were collected for flow cytometric analysis.
(§4) Combination treatment also upregulates pro-inflammatory monocyte-derived macrophages (CD11b+Ly6Chi, FIG. 1E) in the peripheral blood. […] In addition, it was detected that the combination application of β-1,3/1,6-glucan and PD-1 antibodies enhances the percentage of CD4 and CD8 T cells in the blood and tumor (FIG. 2). It was shown that β-1,3/1,6-glucan and anti-PD-1 antibodies synergistically increase tumor infiltration of pro-inflammatory macrophages, decrease the percentage of immunosuppressive TAM, and increase the ratio of acquired immune cells T and B cells, resulting in building up a more pro-inflammatory and anti-tumoral tumor microenvironment.

[8] = system: platelets; experiment: Platelet concentration by hematology analyzer, B16 model with anti-PD-1 antibody; format: in vivo, C57BL/6J mice; settings: blood day 14, FIG. 3
[9] = system: immune cell subpopulations in blood and tumors; experiment: Flow cytometric analysis of immune cell subpopulations in blood and tumors, B16 model with anti-PD-1 antibody; format: in vivo, C57BL/6J mice
Experimental: as §3
Blood samples were collected by cardiac puncture, collected into EDTA-anticoagulation tubes. 50 μl of whole blood was taken for blood analysis, 50 μl of whole blood was taken for erythrocyte lysis (erythrocyte lysis buffer, Meltenyi), and the remaining whole blood was centrifuged at 3500 rpm for 7 min and the plasma was taken and stored at −80° C. Spleens and thymus were weighed for recording. Subcutaneous tumors of mice, about 0.2-0.5 g of tumors tissues, were taken, and single cell suspensions from the tumor samples were obtained by Mouse Tumor Dissociation Kit (Meltenyi). The blood cells after erythrocyte lysis as well as the dissociated tumor cell suspensions were subjected to subsequent processing, as well as flow cytometric detection
The single-cell suspensions were blocked with blocking buffer (20% FBS, 1:100 CD16/CD32 antibody and 1:100 rat IgG) for 20 min, and incubated and stained with the corresponding immune cell surface protein antibodies (CD11 b-PE, CD4-BV510, CD8-PerCP-Cy5.5, CD19-APC, CD3-FITC, CD206-PE-Cy7, Ly6C-APC) for 30 minutes at 4° C. Analysis of immune cell population ratios was performed by FACS
Arial III (BD Biosciences). The specific procedure was delineating the cell population in the FSC/SSC quadrant, delineating single cell population by FSC-H and FSC-A, and delineating corresponding immune cells by immune cell surface markers, and calculating the cell ratio or relative concentration.
as §4

[10] = combination with PD-1 antibody, FIG. 2
[11] = combination with anti-PD-1 antibody, flow cytometry, FIG. 1D
[12] = combination with anti-PD-1 antibody, within the tumor, FIG. 1F

β-1,3/1,6-glucan
concentration of immune cells in blood after radiotherapy [1]: increasing the concentration of immune cells | anti-tumor effect in combination with radiotherapy (tumor volume, tumor weight) [2]: enhances the anti-tumor effect of radiotherapy | tumor suppressive effect in combination with carboplatin [3]: enhances the tumor suppressive effect of carboplatin | decrease in platelets after carboplatin administration [4]: reverses | immune response / immunosuppression after carboplatin administration (immune cell concentration) [4]: reverses the immunosuppression | relative concentration of CD3 in blood [5]: further increase | relative concentration of CD4 in blood [5]: further increase | relative concentration of CD8 in blood [5]: further increase | relative concentration of CD19 in blood [5]: further increase | cell concentration of CD4 after radiotherapy [6]: increases | cell concentration of CD8 after radiotherapy [6]: increases | cell concentration of CD19 after radiotherapy [6]: increases | body weight and death of mice during treatment ([7]; combination of β-1,3/1,6-glucan 4 mg/kg and anti-PD-1 antibody 200 μg/mouse, FIG. 1C): no significant changes | tumor growth inhibition, combination versus single treatment ([7]; β-1,3/1,6-glucan 4 mg/kg i.v. twice a week combined with anti-PD-1 antibody 200 μg/mouse i.v. once a week, FIG. 1A, 1B): more effectively inhibits tumor growth than single treatment | anti-PD-1 antibody-induced tumor regression ([7]; β-1,3/1,6-glucan 4 mg/kg i.v. twice a week combined with anti-PD-1 antibody 200 μg/mouse i.v. once a week, sacrificed day 14, FIG. 1A, 1B): enhances anti-PD-1 antibody-induced tumor regression | platelet concentration ([8]; single agent alone): does not affect | platelet concentration, platelet-lowering side effect of PD-1 antibody ([8]; β-1,3/1,6-glucan in combination with PD-1 antibody): reverses the platelet-lowering side effect | percentage of immunosuppressive tumor-associated macrophages TAM (CD11b+CD206+) ([9]; combination treatment compared with anti-PD-1 antibody alone, within the tumor, FIG. 1G): reduced | percentage of CD4 T cells in the blood and tumor [9, 10]: enhances | percentage of CD8 T cells in the blood and tumor [9, 10]: enhances | pro-inflammatory monocyte-derived macrophages (CD11b+Ly6Chi) in the peripheral blood ([9]; combination with anti-PD-1 antibody, FIG. 1E): upregulates | percentage of CD11b+ cells in the blood [9, 11]: decreases | percentage of CD19+ cells in the blood [9, 11]: increases | tumor infiltration of myeloid cells (CD11b+) [9, 12]: more infiltration | tumor infiltration of pro-inflammatory macrophages (CD11b+Ly6Chi) [9, 12]: more infiltration
